Data reported in patent US10799595B2, “Pyrrolobenzodiazepine conjugates” (priority 2016, dated 2020).

Columns and labels:
[1] = tested on: DU145; experiment: In vitro testing of compound 10, CellTiter-Glo viability, +/- β-glucuronidase, 72 hour assay; assay type: cell-based; conditions: Homo sapiens, DU-145, 72 h
Procedure: DU145 (2000/well, 72 hour assay) and MDA-MB-361 (5000/well, 144 hour assay) cells were plated in culture medium to tissue culture-treated 96-well plates at a volume of 80 μL per well and allowed to adhere overnight. For warhead dilutions, first a 60× concentration of each dose to be tested was prepared by diluting the test articles in DMSO. The 60× dilutions of warhead were then further diluted to a 5× concentration in either cell culture medium alone or cell culture medium containing 5× β-glucuronidase enzyme (Sigma Cat # G0799-25KU). […] DMSO alone diluted to the culture medium was used as the controls. The treated cells were cultured at 37° C./5% CO2 for 72 to 144 hours (depending on established growth kinetics of each particular cell line). At the end of the assay, CellTiter-Glo® (CTG) Luminescent Viability Assay (Promega) was used to determine relative cytotoxicity. 100 μL of CTG reagent was added to each well, and plates were incubated for 10 minutes at room temperature with gentle shaking, absorbance of each sample was read at 560 nm using an EnVision luminometer (Perkin Elmer). The percent cell viability was calculated by the following formula: (average luminescence of treated samples/average luminescence of control samples)×100.
(§1) IC50 values were determined using logistic non-linear regression analysis with GraphPad Prism software.

[2] = tested on: MDA-MB-361; experiment: In vitro testing of compound 10, CellTiter-Glo viability, +/- β-glucuronidase, 144 hour assay; assay type: cell-based; conditions: Homo sapiens, MDA-MB-361, 144 h
Procedure: DU145 (2000/well, 72 hour assay) and MDA-MB-361 (5000/well, 144 hour assay) cells were plated in culture medium to tissue culture-treated 96-well plates at a volume of 80 μL per well and allowed to adhere overnight. For warhead dilutions, first a 60× concentration of each dose to be tested was prepared by diluting the test articles in DMSO. The 60× dilutions of warhead were then further diluted to a 5× concentration in either cell culture medium alone or cell culture medium containing 5× β-glucuronidase enzyme (Sigma Cat # G0799-25KU). 20 μL of cell culture medium containing test article+/−enzyme was added to cells in triplicate wells, and the final dose curve ranged from 6.4 nM to 61 pM in a stepwise 1:4 serial dilution series. DMSO alone diluted to the culture medium was used as the controls. […] 100 μL of CTG reagent was added to each well, and plates were incubated for 10 minutes at room temperature with gentle shaking, absorbance of each sample was read at 560 nm using an EnVision luminometer (Perkin Elmer). The percent cell viability was calculated by the following formula: (average luminescence of treated samples/average luminescence of control samples)×100.
as §1

[3] = tested on: human tumour cell lines; conditions: cited from earlier work; for activity against a range of human tumour cell lines: quoted from REF 2014 impact study
[4] = tested on: human tumour xenograft models; conditions: quoted from REF 2014 impact study; cited from earlier work

C=C1C[C@H]2[C@H](O)N(C(=O)OCc3ccc(NC(=O)[C@H](C)NC(=O)[C@@H](NC(=O)CCOCCOCCOCCOCCOCCOCCOCCOCCNC(=O)CCN4C(=O)C=CC4=O)C(C)C)cc3)c3cc(OCCCOc4cc5c(cc4OC)C(=O)N4CC(=C)C[C@H]4[C@H](O)N5C(=O)OCc4ccc(O[C@@H]5O[C@H](C(=O)O)[C@@H](O)[C@H](O)[C@H]5O)c([N+](=O)[O-])c4)c(OC)cc3C(=O)N2C1 [Compound 10]
IC50 ([1]; No glucuronidase): 6840 nM
IC50 ([1]; With glucuronidase): 201 nM
IC50 ([2]; No glucuronidase): 778 nM
IC50 ([2]; With glucuronidase): 32 nM

C=C1C[C@H]2C=Nc3cc(OCCCOc4cc5c(cc4OC)C(=O)N4CC(=C)C[C@H]4C=N5)c(OC)cc3C(=O)N2C1 [SG2000]
times less cytotoxic than SG2057 ([3]; see Hartley et al 2012): at least 10 times

C=C1C[C@H]2C=Nc3cc(OCCCCCOc4cc5c(cc4OC)C(=O)N4CC(=C)C[C@H]4C=N5)c(OC)cc3C(=O)N2C1 [SG2057]
activity against a range of human tumour cell lines [3]: picomolar/sub-picomolar activity
activity in human tumour xenograft models [4]: curative activity

COc1ccc(C2=CN3C(=O)c4cc(OC)c(OCCCOc5cc6c(cc5OC)C(=O)N5C=C(c7ccc(OC)cc7)C[C@H]5C=N6)cc4N=C[C@@H]3C2)cc1 [SG2202]
activity against a range of human tumour cell lines [3]: picomolar/sub-picomolar activity
activity in human tumour xenograft models [4]: curative activity
